Assay results published in patent US11415513B2, “Method for determining the degree of sensitivity of a strain of fungus to an antifungal agent” (UNIVERSITE GRENOBLE ALPES, priority 2015, dated 2022).
≈ marks a conversion by molar mass, not a printed value.

Legend:
[1] = tested on: strain DSY296 of C. albicans; experiment: Sensitivity test by HCA microscopy (chitin level, Calcofluor White); assay type: cell-based, Candida albicans; conditions: vs cells in the absence of antifungal agent; 6.5 h at 30° C., SC medium; concentration gradient of Table 1
Description: (§1) The strains of Candida were incubated beforehand at 30° C. overnight in a yeast extract medium—peptone dextrose (YPD) (1% bacto peptone, 0.5% yeast extract, 2% glucose, 1.5% agar).
Yeast colonies were then removed from YPD medium plates and suspended in a 0.9% NaCl saline solution, in which the cell concentration was estimated by optical microscopy using Kova counting slides. […]
A step of acquiring images by automated fluorescence microscopy (ScanR screening station, Olympus), using a 40× lens and a CFW filter, made it possible to obtain 30 images per well so as to capture enough cells to provide statistically significant data. These images were analysed by software (ScanR analysis software, Olympus). Firstly, the background noise was processed so as to improve the contrast between the fluorescence of the yeasts and background noise. […] Segmentation of the fluorescent elements present in each of the acquired images was then performed using an algorithm predefined in the software, making it possible to determine the limit of each element on the basis of the fluorescence intensity of said element. […]
Each element then corresponding to a yeast, it was thus possible, on the basis of these elements predefined beforehand, to define the fluorescence intensity for each of the yeasts, this intensity being directly correlated with the chitin content of their wall. […]

[2] = tested on: strain GRE32 of C. krusei; experiment: Etest method (MIC); assay type: cell-based, Candida krusei; conditions: RPMI medium plates, 24 h at 35° C.; for MIC: Pichia kudriavzevii; for phenotype by Etest MIC, interpretation by the EUCAST or CLSI table: fluconazole interpreted by extrapolation of the EUCAST and CLSI data for C. glabrata
Description: (§2) The Etest® method is a commercial test for determining the sensitivity of a strain, most frequently used routinely in clinical mycology laboratories.
(§3) The Etest® tests were performed according to the manufacturer's instructions. After distributing a standardised Mac Farland 0.5 inoculum (equivalent of […]) over plates of RPMI medium, said plates were incubated for 24 h at 35° C., with the exception of C. glabrata in which case the incubation was extended to 48 h so as to be able to determine the minimum inhibitory concentration (MIC).
(§4) The results of the MICs obtained were interpreted in accordance with the tables of the CLSI (Clinical and Laboratory Standards Institute) and/or of EUCAST (European Committee on Antimicrobial Susceptibility Testing) (Arendrup M C, Cuenca-Estrella M, Lass-Flörl C, Hope W W (2014) Breakpoints for antifungal agents: an update from EUCAST focussing on echinocandins against Candida spp and triazoles against Aspergillus spp. Drug Resist Updat 16(6):81-95. doi:10.1016/j.drup.2014.01.001) (cf. Table 2 taken from Maubon D, Garnaud C, Calandra T, et al. (2014) Resistance of Candida spp. to antifungal drugs in the ICU: where are we now? Intensive Care Med. doi: 10.1007/s00134-014-3404-7) which list the clinical thresholds (CBPs) for the most common species of yeast of the genus Candida as a function of different antifungal agents, or according to the table of epidemiological thresholds (ECVs).

[3] = tested on: strain ATCC®6258 of C. krusei; experiment: Etest method (MIC); assay type: cell-based, Candida krusei; conditions: RPMI medium plates, 24 h at 35° C.; for MIC: Pichia kudriavzevii, ATCC6258; for phenotype by Etest MIC, interpretation by the EUCAST or CLSI table: fluconazole interpreted by extrapolation of the EUCAST and CLSI data for C. glabrata
Description: as §2, §3, §4

[4] = tested on: strain SC5314 of C. albicans; experiment: Sensitivity test by HCA microscopy (chitin level, Calcofluor White; cell count); assay type: cell-based, Candida albicans; conditions: 6.5 h at 30° C., SC medium; for decrease of the number of cells / increase of the chitin level in the wall of the cells: vs cells in the absence of antifungal agent, concentration gradient of Table 1
Description: as §1
Yeast colonies were then removed from YPD medium plates and suspended in a 0.9% NaCl saline solution, in which the cell concentration was estimated by optical microscopy using Kova counting slides.
A dilution was performed to obtain 15 ml of an inoculum at 3×10^6 CFU/ml, in a synthetic complete (SC) medium at pH 7 (2% glucose, 0.5% ammonium sulfate, 0.17% nitrogen-containing yeast base, 0.2% synthetic complete mixture, and 10% HEPES 1.5M pH 7.2) for C. albicans, C. parapsilosis, C. tropicalis and C. krusei, and in a solution of RPMI 1640 pH 7.3 (10% HEPES 1M pH 7.2) for C. glabrata, so as to reduce the formation of septa and clusters.
1 ml of inoculum was then added to 2 ml of antifungal solution prepared in an SC or RPMI medium depending on the species of fungus, so as to obtain a final concentration of yeast of 10^6 CFU/ml and the desired concentration of antifungal agent according to table 1.
After homogenisation, the cultures were placed at 30° C. at 200 rpm, with the exception of cultures of C. glabrata, which were placed at 35° C. at 200 rpm, and incubated for a period of 6.5 h or 24 h.
After incubation, 100 μl of the culture of fungi obtained above were transferred in triplicate to 96-well plates, and 2.5 μl of Calcofluor White (CFW) were added to each well so as to mark the chitin of the cell walls of the yeasts.
A step of acquiring images by automated fluorescence microscopy (ScanR screening station, Olympus), using a 40× lens and a CFW filter, made it possible to obtain 30 images per well so as to capture enough cells to provide statistically significant data. These images were analysed by software (ScanR analysis software, Olympus). Firstly, the background noise was processed so as to improve the contrast between the fluorescence of the yeasts and background noise. A pixel threshold was then defined. Segmentation of the fluorescent elements present in each of the acquired images was then performed using an algorithm predefined in the software, making it possible to determine the limit of each element on the basis of the fluorescence intensity of said element. A size parameter was then applied to select the yeasts and eliminate the aggregates and the fluorescent debris.
Each element then corresponding to a yeast, it was thus possible, on the basis of these elements predefined beforehand, to define the fluorescence intensity for each of the yeasts, this intensity being directly correlated with the chitin content of their wall.
On the basis of said defined elements, it was also possible to automatically count the yeasts,
The strain SC5314 of C. albicans was cultivated as described in paragraph I of the Examples section so as to obtain an inoculum at 3×10^6 CFU/ml in 15 ml of SC medium.
2 ml of fluconazole solution prepared in the SC medium were then added to 1 ml of this inoculum so as to obtain a final concentration of yeast of 10^6 CFU/ml and of 16 μg/ml in fluconazole.
The inoculum was treated in the same way so as to obtain cultures of 10^6 CFU/ml and the following concentrations of fluconazole: 0.015 μg/ml, 0.031 μg/ml, 0.062 μg/ml, 0.125 μg/ml, 0.25 μg/ml, 0.5 μg/ml, 1 μg/ml, 2 μg/ml, 4 μg/ml, 8 μg/ml, 16 μg/ml.
After incubation for 6.5 h at 30° C. with stirring at 200 rpm, 100 μl of each culture were removed and transferred to 96-well plates. This procedure was performed in triplicate, and 2.5 μl of CFW were then added to each well.
The chitin level in the cell wall of the yeasts was then measured by […] analysis (HCA) microscopy, as described in paragraph II of the Examples section, in triplicate for each condition of concentration of fluconazole and without fluconazole.

[5] = tested on: strain 8/21 of C. parapsilosis; experiment: Etest method (MIC); assay type: cell-based, Candida parapsilosis; conditions: RPMI medium plates, 24 h at 35° C.; for MIC: Lodderomyces parapsilosis
Description: as §2, §3, §4

Compound	decrease in the chitin level in the wall of the cells [1]	MIC [2] [µg/mL]	phenotype by Etest MIC, interpretation by the EUCAST or CLSI table [2]	MIC [3] [µg/mL]	phenotype by Etest MIC, interpretation by the EUCAST or CLSI table [3]	phenotype of the strain with respect to the antifungal agent (HCA) [4]	decrease of the number of cells [4]	increase of the chitin level in the wall of the cells [4]	MIC [5] [µg/mL]	phenotype by Etest MIC, interpretation by the EUCAST and CLSI tables [5]
OC(Cn1cncn1)(Cn1cncn1)c1ccc(F)cc1F [fluconazole]	less than 20%	64 (≈ 209 µM)	resistant	64 (≈ 209 µM)	resistant	sensitive (an increase in the chitin level greater than or equal to 20% is observed compared to the chitin level of a population of cells of said fungus in the absence of antifungal agent, as well as a decrease in the number of cells of at least 0.3 log)	at least 0.3 log	greater than or equal to 20%	8 (≈ 26.1 µM)	resistant
C[C@@H](c1ncncc1F)[C@](O)(Cn1cncn1)c1ccc(F)cc1F [voriconazole]	less than 20%	1 (≈ 2.86 µM)	intermediate	1 (≈ 2.86 µM)	intermediate	sensitive (an increase in the chitin level greater than or equal to 20% is observed compared to the chitin level of a population of cells of said fungus in the absence of antifungal agent, as well as a decrease in the number of cells of at least 0.3 log)	at least 0.3 log	greater than or equal to 20%	4 (≈ 11.5 µM)	resistant
